According to PubChem BioAssay (NCI):
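Following 48 hours of exposure in 96-well plates, responses at five concentrations were used to interpolate endpoints linearly. TGI: total growth inhibition.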

Legend:
Assay in all cases: NCI tumour cell line growth inhibition, 48 h
[1] = tested on: A549 NSCLC
[2] = tested on: ACHN renal
[3] = tested on: BT-549 breast
[4] = tested on: CAKI-1 renal
[5] = tested on: CCRF-CEM leukemia
[6] = tested on: COLO 205 colon
[7] = tested on: DU-145 prostate
[8] = tested on: EKVX NSCLC
[9] = tested on: HCT-116 colon
[10] = tested on: HCT-15 colon
[11] = tested on: HL-60(TB) leukemia
[12] = tested on: HOP-62 NSCLC
[13] = tested on: HS 578T breast
[14] = tested on: HT29 colon
[15] = tested on: IGROV1 ovarian
[16] = tested on: K-562 leukemia
[17] = tested on: KM12 colon
[18] = tested on: LOX IMVI melanoma
[19] = tested on: M14 melanoma
[20] = tested on: MALME-3M melanoma
[21] = tested on: MCF7 breast
[22] = tested on: MDA-MB-231 breast
[23] = tested on: MDA-MB-435
[24] = tested on: MDA-N
[25] = tested on: MOLT-4 leukemia
[26] = tested on: NCI-H23 lung
[27] = tested on: NCI-H460 lung
[28] = tested on: NCI/ADR-RES ovarian
[29] = tested on: OVCAR-3 ovarian
[30] = tested on: OVCAR-4 ovarian
[31] = tested on: OVCAR-5 ovarian
[32] = tested on: OVCAR-8 ovarian
[33] = tested on: PC-3 prostate
[34] = tested on: RPMI-8226 leukemia
[35] = tested on: RXF 393 renal
[36] = tested on: SF-295 CNS
[37] = tested on: SF-539 CNS
[38] = tested on: SK-MEL-28 melanoma
[39] = tested on: SK-MEL-5 melanoma
[40] = tested on: SK-OV-3 ovarian
[41] = tested on: SN12C renal
[42] = tested on: SNB-19 CNS
[43] = tested on: SNB-75 CNS
[44] = tested on: SR leukemia
[45] = tested on: SW-620 colon
[46] = tested on: T-47D breast
[47] = tested on: TK-10 renal
[48] = tested on: U251 CNS
[49] = tested on: UACC-257 melanoma
[50] = tested on: UACC-62 melanoma
[51] = tested on: UO-31 renal
[52] = tested on: 786-0 renal
[53] = tested on: HCC-2998 colon
[54] = tested on: NCI-H226 lung
[55] = tested on: NCI-H522 lung
[56] = tested on: SF-268 CNS
[57] = tested on: SK-MEL-2 melanoma

**Q.** Which results are given for CSc1nc(N)c2c(-c3ccccc3)c3c(nc2n1)CCCC3?
**A.** TGI [1]: > 100 µM; TGI [2]: > 100 µM; TGI [3]: > 100 µM; TGI [4]: > 100 µM; TGI [5]: > 100 µM; TGI [6]: > 100 µM; TGI [7]: > 100 µM; TGI [8]: > 100 µM; TGI [9]: > 100 µM; TGI [10]: > 100 µM; TGI [11]: > 100 µM; TGI [12]: > 100 µM; TGI [13]: 48.5 µM; TGI [14]: > 100 µM; TGI [15]: > 100 µM; TGI [16]: > 100 µM; TGI [17]: > 100 µM; TGI [18]: > 100 µM; TGI [19]: > 100 µM; TGI [20]: > 100 µM; TGI [21]: > 100 µM; TGI [22]: > 100 µM; TGI [23]: > 100 µM; TGI [24]: > 100 µM; TGI [25]: > 100 µM; TGI [26]: > 100 µM; TGI [27]: > 100 µM; TGI [28]: > 100 µM; TGI [29]: > 100 µM; TGI [30]: > 100 µM; TGI [31]: > 100 µM; TGI [32]: > 100 µM; TGI [33]: > 100 µM; TGI [34]: > 100 µM; TGI [35]: 94.2 µM; TGI [36]: > 100 µM; TGI [37]: > 100 µM; TGI [38]: > 100 µM; TGI [39]: > 100 µM; TGI [40]: > 100 µM; TGI [41]: > 100 µM; TGI [42]: > 100 µM; TGI [43]: > 100 µM; TGI [44]: > 100 µM; TGI [45]: > 100 µM; TGI [46]: > 100 µM; TGI [47]: > 100 µM; TGI [48]: > 100 µM; TGI [49]: > 100 µM; TGI [50]: > 100 µM; TGI [51]: > 100 µM

**Q.** OC1COC2CC(Nc3ccccn3)OC12 (stereo not given) was tested. Which TGI [52] did it give?
**A.** The TGI was > 100 µM.

**Q.** And the TGI [1]?
**A.** The TGI was > 100 µM.

**Q.** What about the TGI [2] of the same molecule?
**A.** Its TGI is > 100 µM.

**Q.** What about the TGI [3] of the same molecule?
**A.** Its TGI is > 100 µM.

**Q.** What about the TGI [4] of the same molecule?
**A.** Its TGI is > 100 µM.

**Q.** And the TGI [5]?
**A.** The TGI was > 100 µM.

**Q.** What about the TGI [6] of the same molecule?
**A.** The TGI was > 100 µM.

**Q.** What about the TGI [8] of the same molecule?
**A.** Its TGI is > 100 µM.

**Q.** What about the TGI [53] of the same molecule?
**A.** Its TGI is > 100 µM.

**Q.** And the TGI [9]?
**A.** The TGI was > 100 µM.

**Q.** And the TGI [10]?
**A.** The TGI was > 100 µM.

**Q.** And the TGI [12]?
**A.** Its TGI is > 100 µM.

**Q.** What about the TGI [13] of the same molecule?
**A.** The TGI was > 100 µM.

**Q.** What about the TGI [14] of the same molecule?
**A.** Its TGI is > 100 µM.

**Q.** What about the TGI [15] of the same molecule?
**A.** Its TGI is > 100 µM.

**Q.** And the TGI [16]?
**A.** The TGI was > 100 µM.

**Q.** And the TGI [17]?
**A.** Its TGI is > 100 µM.

**Q.** And the TGI [18]?
**A.** The TGI was > 100 µM.

**Q.** What about the TGI [19] of the same molecule?
**A.** Its TGI is > 100 µM.

**Q.** And the TGI [20]?
**A.** The TGI was > 100 µM.

**Q.** What about the TGI [22] of the same molecule?
**A.** Its TGI is > 100 µM.

**Q.** What about the TGI [23] of the same molecule?
**A.** The TGI was > 100 µM.

**Q.** What about the TGI [24] of the same molecule?
**A.** Its TGI is > 100 µM.

**Q.** And the TGI [25]?
**A.** Its TGI is > 100 µM.

**Q.** And the TGI [54]?
**A.** Its TGI is > 100 µM.

**Q.** And the TGI [26]?
**A.** The TGI was > 100 µM.

**Q.** What about the TGI [27] of the same molecule?
**A.** The TGI was > 100 µM.

**Q.** What about the TGI [55] of the same molecule?
**A.** Its TGI is > 100 µM.

**Q.** And the TGI [28]?
**A.** The TGI was > 100 µM.

**Q.** What about the TGI [29] of the same molecule?
**A.** Its TGI is > 100 µM.

**Q.** What about the TGI [30] of the same molecule?
**A.** The TGI was > 100 µM.

**Q.** What about the TGI [31] of the same molecule?
**A.** Its TGI is > 100 µM.

**Q.** And the TGI [32]?
**A.** Its TGI is > 100 µM.

**Q.** What about the TGI [33] of the same molecule?
**A.** The TGI was > 100 µM.

**Q.** What about the TGI [34] of the same molecule?
**A.** Its TGI is > 100 µM.

**Q.** What about the TGI [35] of the same molecule?
**A.** The TGI was > 100 µM.

**Q.** What about the TGI [56] of the same molecule?
**A.** Its TGI is > 100 µM.

**Q.** And the TGI [36]?
**A.** The TGI was > 100 µM.

**Q.** What about the TGI [37] of the same molecule?
**A.** The TGI was > 100 µM.

**Q.** And the TGI [57]?
**A.** Its TGI is > 100 µM.

**Q.** What about the TGI [38] of the same molecule?
**A.** The TGI was > 100 µM.

**Q.** What about the TGI [39] of the same molecule?
**A.** Its TGI is > 100 µM.

**Q.** What about the TGI [40] of the same molecule?
**A.** Its TGI is > 100 µM.

**Q.** What about the TGI [41] of the same molecule?
**A.** Its TGI is > 100 µM.

**Q.** And the TGI [42]?
**A.** Its TGI is > 100 µM.

**Q.** What about the TGI [43] of the same molecule?
**A.** Its TGI is > 100 µM.

**Q.** And the TGI [44]?
**A.** The TGI was > 100 µM.

**Q.** And the TGI [45]?
**A.** Its TGI is > 100 µM.

**Q.** What about the TGI [46] of the same molecule?
**A.** Its TGI is > 100 µM.

**Q.** What about the TGI [47] of the same molecule?
**A.** Its TGI is > 100 µM.

**Q.** What about the TGI [48] of the same molecule?
**A.** The TGI was > 100 µM.

**Q.** And the TGI [49]?
**A.** The TGI was > 100 µM.

**Q.** And the TGI [50]?
**A.** Its TGI is > 100 µM.

**Q.** What about the TGI [51] of the same molecule?
**A.** The TGI was > 100 µM.
